Results published in US10743540B2, “3-amino-1,2,4-triazine derivatives and their use for controlling undesired plant growth” (BAYER CROPSCIENCE AKTIENGESELLSCHAFT, priority 2016, dated 2020).

How the values were obtained:
Type in all cases: in vivo
[1] = system: ECHCG: Echinochloa crus-galli; experiment: Post-emergence herbicidal effect; conditions: application rate 320 g/ha, treated at one-leaf stage, assessed visually after about 3 weeks, 100% = plants have died
Procedure, shortened: (§1)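 Greenhouse foliar spray, one-leaf stage; WP/EC formulation in water at 600 to 800 L/ha + 0.2% wetting agent. Visual % rating ~3 wk post-treatment vs untreated (100% = plants dead, 0% = as control).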

[2] = system: AMARE: Amaranthus retroflexus; experiment: Post-emergence herbicidal effect; conditions: application rate 320 g/ha, treated at one-leaf stage, assessed visually after about 3 weeks, 100% = plants have died
Procedure, shortened: as §1

VIOTR: Viola tricolor = experiment: Post-emergence herbicidal effect; conditions: application rate 320 g/ha, treated at one-leaf stage, assessed visually after about 3 weeks, 100% = plants have died
Procedure, shortened: as §1

STEME: Stellaria media [3] = experiment: Post-emergence herbicidal effect; conditions: application rate 320 g/ha, treated at one-leaf stage, assessed visually after about 3 weeks, 100% = plants have died
Procedure, shortened: as §1

VERPE: Veronica persica [4] = experiment: Post-emergence herbicidal effect; conditions: application rate 320 g/ha, treated at one-leaf stage, assessed visually after about 3 weeks, 100% = plants have died
Procedure, shortened: as §1

[5] = system: ALOMY: Alopecurus myosuroides; experiment: Post-emergence herbicidal effect; conditions: application rate 320 g/ha, treated at one-leaf stage, assessed visually after about 3 weeks, 100% = plants have died
Procedure, shortened: as §1

[6] = system: ECHCG: Echinochloa crus-galli; experiment: Pre-emergence herbicidal effect; conditions: application rate 320 g/ha, scored visually after 3 weeks, 100% = plants have died, 0% = like control plants
Procedure, shortened: (§2)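 Visual % damage vs untreated controls, scored 3 wk after treatment (100% = plants dead, 0% = like control). Pre-emergence soil-surface spray, WP or EC formulation, 600 to 800 L/ha water + 0.2% wetting agent, sandy loam, greenhouse.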

[7] = system: LOLMU: Lolium multiflorum; experiment: Pre-emergence herbicidal effect; conditions: application rate 320 g/ha, scored visually after 3 weeks, 100% = plants have died, 0% = like control plants
Procedure, shortened: as §2

[8] = system: MATIN: Matricaria inodora; experiment: Pre-emergence herbicidal effect; conditions: application rate 320 g/ha, scored visually after 3 weeks, 100% = plants have died, 0% = like control plants
Procedure, shortened: as §2

STEME: Stellaria media [9] = experiment: Pre-emergence herbicidal effect; conditions: application rate 320 g/ha, scored visually after 3 weeks, 100% = plants have died, 0% = like control plants
Procedure, shortened: as §2

[10] = system: ABUTH: Abutilon theophrasti; experiment: Pre-emergence herbicidal effect; conditions: application rate 320 g/ha, scored visually after 3 weeks, 100% = plants have died, 0% = like control plants
Procedure, shortened: as §2

[11] = system: POLCO: Polygonum convolvulus; experiment: Pre-emergence herbicidal effect; conditions: application rate 320 g/ha, scored visually after 3 weeks, 100% = plants have died, 0% = like control plants
Procedure, shortened: as §2

VERPE: Veronica persica [12] = experiment: Pre-emergence herbicidal effect; conditions: application rate 320 g/ha, scored visually after 3 weeks, 100% = plants have died, 0% = like control plants
Procedure, shortened: as §2

SETVI: Setaria viridis = experiment: Pre-emergence herbicidal effect; conditions: application rate 320 g/ha, scored visually after 3 weeks, 100% = plants have died, 0% = like control plants
Procedure, shortened: as §2

[13] = system: ALOMY: Alopecurus myosuroides; experiment: Pre-emergence herbicidal effect; conditions: application rate 320 g/ha, scored visually after 3 weeks, 100% = plants have died, 0% = like control plants
Procedure, shortened: as §2

Compound	Herbicidal activity with respect to [%] ECHCG [1] [%]	Herbicidal activity with respect to [%] AMARE [2] [%]	Herbicidal activity with respect to [%] VIOTR (VIOTR: Viola tricolor) [%]	Herbicidal activity with respect to [%] STEME (STEME: Stellaria media [3]) [%]	Herbicidal activity with respect to [%] VERPE (VERPE: Veronica persica [4]) [%]	Herbicidal activity with respect to [%] ALOMY [5] [%]	Herbicidal activity with respect to [%] ECHCG [6] [%]	Herbicidal activity with respect to [%] LOLMU [7] [%]	Herbicidal activity with respect to [%] MATIN [8] [%]	Herbicidal activity with respect to [%] STEME (STEME: Stellaria media [9]) [%]	Herbicidal activity with respect to [%] ABUTH [10] [%]	Herbicidal activity with respect to [%] POLCO [11] [%]	Herbicidal activity with respect to [%] VERPE (VERPE: Veronica persica [12]) [%]	Herbicidal activity with respect to [%] SETVI (SETVI: Setaria viridis) [%]	Herbicidal activity with respect to [%] ALOMY [13] [%]
Cc1ccc2c(c1)[C@H](Nc1nnc(C(F)(F)F)c(N)n1)CC2 [Example 1.67]	100	100	100	100	90	90	100	100	100	100	80	100	100	100	100
Cc1ccc2c(c1)[C@H](Nc1nnc(Cl)c(N)n1)[C@@H](C)C2 [Example 1.3, 6-Chloro-N^3-[(1R,2S)-2,6-dimethyl-2,3-dihydro-1H-inden-1-yl]-1,2,4-triazine-3,5-diamine]	80	100	100	100	100	90	100	100	100	100	100	100	100	100	100
Cc1ccc2c(c1)[C@H](Nc1nnc([S+](C)[O-])c(N)n1)CC2 (stereo partly drawn) [Example 1.71]	100	80	90	100	80	90	100	100	100	100	100	100	100	100	100
Nc1nc(N[C@@H]2CCc3ccccc32)nnc1C(F)(F)F [Example 1.24]	100	90	100	100	100	100	100	100	100	100	80	100	100	100	100
Cc1ccc2c(c1)[C@H](Nc1nnc(C#N)c(N)n1)CC2 [Example 1.70]	100	90	90	100	100	100	100	100	100	100	100	100	100	100	100
Cc1ccc2c(c1)[C@H](Nc1nnc([S+](C)[O-])c(N)n1)[C@@H](C)C2 (stereo partly drawn) [Example 1.44]	90	100	90	90	100	100	100	100	100	100	100	100	100	100	100
Cc1ccc2c(c1)[C@H](Nc1nnc(C#N)c(N)n1)[C@@H](C)C2 [Example 1.25]	100	90	90	100	100	100	100	100	100	100	100	100	100	100	100
